Measurements from patent US20160235102A1, “SWEETENER COMPOSITION, SWEETENER PRODUCTS, AND METHODS OF SWEETENING” (ALMENDRA AMERICAS, LLC, priority 2013, published 2016).

Tested on: trained expert panelists
Assay: Sensory formulation study ballot: taste attributes rated on 0-15 scales by trained expert panelists
Assay type: in vivo, human
Conditions: 0-15 scale, rating defined for panel calibration
From the text: Tongue numbing can also manifest itself as “tongue tingling”. These non-sugar-like characteristics appear inter-related in the sense that formulation as well as temperature changes affect the perception of several of them. Another taste characteristic of steviol glycosides, particularly those with relatively low levels of REB A, is soapiness, a characteristic that results from the surfactant portion of the molecule. To quantify all of these sensory effects by existing methods would require an expert sensory panel and at least 4 different sensory tests (i.e., C/R Function Determination, Flavor Profile Analysis, Temporal Profile Analysis and Adaptation Profile Analysis). However, to address a need for rapid screening of HP sweetener formulations, Prakash et al., described a scaling technique to quantify all of these sensory percepts in a single test (reference shown below under the table). An improvement of this methodology is described below.
Prior to the evaluation of test samples, all panelists must first calibrate themselves on Sucrose and Reference Samples (e.g., REB A) to ensure that they are able to appropriately scale taste attributes of interest. These Reference Samples are to be available in ample quantities for all experimental sessions. The Sucrose Reference is 10.0% sucrose acidified with 0.1% citric acid. For illustration purposes, an example of a Reference Sample can be a REB A Reference Sample that has 500 PPM REB A in the same system for general formula optimization studies.
Take a ca. 15 mL sample of the Sucrose Reference into the mouth swishing it around vigorously and note all attributes of the sensory experience. After ca. 10 sec, expectorate the sample and immediately rinse vigorously with ca. 15 mL of water, expectorating the rinse water. Over the next 2 minutes, while minimizing tongue movement in the mouth, pay attention to any rebound or intensification in perceived sweetness, bitterness, or numbing/tingling sensation. The intensity of the attribute perceived at 2 minutes is an estimate of its lingering tendency. Upon completion of calibration with the Sucrose Reference, calibration with the REB A Reference is carried out in the same way. The attribute ratings for the Sucrose and REB A References, all on 0-15 scales, are defined as follows: […]
After completion of reference sample calibrations, as well as in follow up of all sample tests, rinse the mouth vigorously with ca. 15 mL portions of the Sucrose Reference solution and two ca. 15 mL portions of water in effort to get the sensory system back to baseline.
After calibration with the Sucrose Reference and REB A Reference, evaluate all experimental samples by the same protocol, always using the Sucrose Reference and water rinse procedure and ensuring adequate time for the sensory system to return to normal before proceeding with subsequent samples
Taste procedure: the beverages were evaluated in triplicate using the sensory methodology described herein by four trained expert panelists and mean values were used for data analysis.

[1] = 2 minutes after expectoration and rinse, 10.0% sucrose or 500 PPM REB A in 0.1% citric acid
[2] = Sucrose Reference 10.0% sucrose, REB A Reference 500 PPM, both in 0.1% citric acid

Compound: C=C1C[C@@]23CC[C@H]4[C@@](C)(CCC[C@@]4(C)C(=O)O[C@@H]4O[C@H](CO)[C@@H](O)[C@H](O)[C@H]4O)[C@@H]2CC[C@]1(O[C@@H]1O[C@H](CO)[C@@H](O)[C@H](O[C@@H]2O[C@H](CO)[C@@H](O)[C@H](O)[C@H]2O)[C@H]1O[C@@H]1O[C@H](CO)[C@@H](O)[C@H](O)[C@H]1O)C3 [REB A100 Reference, rebaudioside A]
- Bitterness Intensity @ 2 Min (Bitter2) [1]: 2
- Numbing/Tingling Sensation @ 2 Min (Numb/Ting2) [1]: 2
- Sweetness Intensity @ 2 Min (Sweet2) [1]: 3
- Astringency Intensity (Astring) [2]: 0
- Bitterness Intensity (IB) [2]: 3
- Mouthfeel (Mfeel) [2]: 0
- Numbing/Tingling Sensation (Numb/Ting) [2]: 0
- Soapiness (Soap) [2]: 1
- Sweetness Intensity Initial (Sweetness) [2]: 10
- Sweetness Onset/Appearance Time (Onset) [2]: 3
